From US10799478B2, “Treatment of androgen deprivation therapy associated symptoms” (priority 2014, dated 2020)
Where two headings read alike, the source gives them in different places.

Assays:
[1] = tested on: ORX Wistar male rats; test: In Vivo Study to Explore Direct Antagonist Effect of Example 1 in the Presence of TE; set-up: species or system rat
Experimental: Route of administration for all groups except TE is oral. TE is administered subcutaneously. At the end of 8 weeks of daily dosing, rats are euthanized, weighed & tissue harvested. Levator ani, prostates, and seminal vesicles are collected from each animal. Results are plotted as means±SE.

[2] = tested on: LnCAP human prostate cancer cells; test: LnCAP Gene Expression; assay type: cell-based; conditions: Homo sapiens, LNCaP
[3] = tested on: Orx rats; test: Orchidectomized Rat Assay; assay type: in vivo; conditions: PTH 10 ug/Kg/d sc, once daily 2 months
[4] = ORX + TE 1 mg/kg/d (control group of Dunnett's comparison)
[5] = ORX + TE 1 mg/kg/d sc alone, 8 weeks

For `CCCCCCC(=O)O[C@H]1CC[C@H]2[C@@H]3CCC4=CC(=O)CC[C@]4(C)[C@H]3CC[C@]12C` [TE, testosterone enanthate, reference compound], which “Prostate Weights, Abs(Dif) − LSD” value [1, 4] is on record?
The value was −0.15.

And the “Seminal Vesicle Wet Weights, Abs(Dif) − LSD” value [1, 4]?
The value was −0.52.

What about the “Prostate Weight, % Sham” value [1, 5] of the same compound?
Its value is 45.5 % Sham.

And the “SV Weight, % Sham” value [1, 5]?
The value was 58.5 % Sham.

Which results are given for `C[C@]1(O)CC[C@H]2[C@@H]3CCC4=CC(=O)CCC4=C3C=C[C@@]21C` [Example R1881]?
EC50 ([2]; AR gene, read-out: LnCAP Gene Expression EC50 (nM) AR): 0.035 nM; EC50 ([2]; CLUSTERIN gene, read-out: LnCAP Gene Expression EC50 (nM) CLUSTERIN): 0.37 nM; EC50 ([2]; PSA gene, read-out: LnCAP Gene Expression EC50 (nM) PSA): 0.034 nM

How did the “SV Weight, % Sham” value [3] turn out when “PTH: PTH (1-38) (Zeneca (Cambridge Research Biochemicals)), given sc as an injection (SVSEIQLMHNLGKHLNSMERVEWLRKKLQDVHNFVALG; Parathyroid hormone; UniProt P01270 32-69, looked up, fragment) [reference compound]” was run?
Its value is 5.6 % Sham.
